Experimental data from patent USRE40387E1, “Pharmaceutical compositions, dosage forms and methods for oral administration of epothilones” (Bristol-Myers Squibb Company, priority 2001, dated 2008).

Experiments:
[1] = Pharmacokinetics in dogs, 10 min IV infusion; assay type: in vivo, male beagle dogs
Description: Plasma samples from pharmacokinetic/pharmacodynamic studies were analyzed for the concentration of Compound (A) using an LC/MS/MS (liquid chromatography/mass spectrometry/mass spectrometry) assay with a standard curve range of 5 to 20,000 ng/mL (10 to 40,000 nM) for studies in mice and 2 to 1000 ng/mL (4 to 2000 nM) for studies in rats and dogs. In pharmacodynamic studies, concentrations of Compound (A) were determined using the LC/MS/MS assay with a standard curve range of 5 to 20,000 ng/mL (10 to 40,000 nM) in mouse plasma. The LC/MS/MS assay was also used to determine the concentrations of Compound (B), a degradation product of Compound (A) formed in the stock/dosing solution or in vivo, in rat and dog plasma. The structure of Compound (B) is: [drawing 9]
Male beagle dogs (n=3) were administered a 10 min IV infusion of 0.5 mg/kg of Compound (A) (given as a 10% ethanol solution). Plasma samples were taken over a period of 32 h after dose to determine the plasma concentrations of Compound (A). […] The T-HALF was estimated to be approximately 24 h.

mouse liver microsomes = experiment: Oxidative metabolism in mouse liver microsomes; assay type: in vitro ADME; settings: 40 :M, NADPH
Description: (§1) Upon incubation of Compound (A) (40 :M) with mouse, rat, dog, and human liver microsomes fortified with nicotinamide adenine dinucleotide phosphate (NADPH), the rate of oxidative metabolism of Compound (A) was 2.1, 0.7, 1.2 and 1.3 nmol/min/mg protein, respectively. Moreover, the metabolite distribution was similar among all species (metabolite masses included several […] and M−2 compounds). Qualitatively, there appeared to be similar production of metabolites of Compound (A) after incubation with rat or human hepatocytes compared to microsomal incubations. Products similar to those arising from the chemical degradation of Compound (A) appeared to be the major products in the hepatocyte incubations.

dog liver microsomes = experiment: Oxidative metabolism in dog liver microsomes; assay type: in vitro ADME; settings: 40 :M, NADPH
Description: as §1

human liver microsomes = experiment: Oxidative metabolism in human liver microsomes; assay type: in vitro ADME; settings: 40 :M, NADPH
Description: as §1

CYP1A2 = target: T1, CYP1A2 (Homo sapiens, UniProt P05177); experiment: Inhibition of recombinant human CYP1A2 (deethylation of 3-cyano-7-ethoxycoumarin); assay type: in vitro ADME; settings: recombinant human CYP isoform
T1 sequence (P05177 1-516): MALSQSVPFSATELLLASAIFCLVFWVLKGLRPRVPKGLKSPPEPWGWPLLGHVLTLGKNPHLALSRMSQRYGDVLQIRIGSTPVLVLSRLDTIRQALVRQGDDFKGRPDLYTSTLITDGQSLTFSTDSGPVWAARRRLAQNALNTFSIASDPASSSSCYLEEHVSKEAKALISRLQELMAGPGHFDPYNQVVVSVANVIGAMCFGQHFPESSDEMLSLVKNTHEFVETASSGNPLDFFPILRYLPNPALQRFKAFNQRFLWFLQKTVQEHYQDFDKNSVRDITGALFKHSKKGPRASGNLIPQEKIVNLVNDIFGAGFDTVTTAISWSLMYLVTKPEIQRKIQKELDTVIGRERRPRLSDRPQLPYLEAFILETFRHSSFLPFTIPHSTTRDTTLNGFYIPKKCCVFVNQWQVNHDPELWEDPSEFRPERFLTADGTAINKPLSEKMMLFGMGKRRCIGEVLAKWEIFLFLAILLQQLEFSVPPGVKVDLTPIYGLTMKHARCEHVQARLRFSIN
Description: (§2) The ability of Compound (A) to inhibit the major human cytochrome P450s (CYPs) responsible for the metabolism of drugs was evaluated in vitro using recombinant human CYP isoforms. IC50 values for inhibition of deethylation of 3-cyano-7-ethoxycoumarin (CYP1A2, CYP2C9, CYP2C19, and CYP2D6) and for inhibition of dealkylation of benzoyl-resorufin (CYP3A4) were determined.

CYP2C19 = CYP2C19 (Homo sapiens, UniProt P33261); experiment: Inhibition of recombinant human CYP2C19 (deethylation of 3-cyano-7-ethoxycoumarin); assay type: in vitro ADME; settings: recombinant human CYP isoform
CYP2C19, sequence (P33261 whole entry, canonical isoform): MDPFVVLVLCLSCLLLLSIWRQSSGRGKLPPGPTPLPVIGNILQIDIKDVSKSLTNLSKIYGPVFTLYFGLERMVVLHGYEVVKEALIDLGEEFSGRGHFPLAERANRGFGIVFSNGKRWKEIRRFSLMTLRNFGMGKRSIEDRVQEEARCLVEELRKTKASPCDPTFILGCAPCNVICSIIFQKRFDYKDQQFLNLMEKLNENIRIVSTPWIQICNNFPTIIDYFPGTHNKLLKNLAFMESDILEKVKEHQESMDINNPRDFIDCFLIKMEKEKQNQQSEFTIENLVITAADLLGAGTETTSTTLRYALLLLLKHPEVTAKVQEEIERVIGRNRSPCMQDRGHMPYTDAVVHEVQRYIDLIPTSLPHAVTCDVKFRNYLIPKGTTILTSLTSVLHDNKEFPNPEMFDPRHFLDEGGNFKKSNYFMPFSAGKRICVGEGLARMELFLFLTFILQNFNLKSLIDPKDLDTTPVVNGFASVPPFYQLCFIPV
Description: as §2

CYP2D6 = CYP2D6 (Homo sapiens, UniProt P10635); experiment: Inhibition of recombinant human CYP2D6 (deethylation of 3-cyano-7-ethoxycoumarin); assay type: in vitro ADME; settings: recombinant human CYP isoform
CYP2D6, sequence (P10635 whole entry, canonical isoform): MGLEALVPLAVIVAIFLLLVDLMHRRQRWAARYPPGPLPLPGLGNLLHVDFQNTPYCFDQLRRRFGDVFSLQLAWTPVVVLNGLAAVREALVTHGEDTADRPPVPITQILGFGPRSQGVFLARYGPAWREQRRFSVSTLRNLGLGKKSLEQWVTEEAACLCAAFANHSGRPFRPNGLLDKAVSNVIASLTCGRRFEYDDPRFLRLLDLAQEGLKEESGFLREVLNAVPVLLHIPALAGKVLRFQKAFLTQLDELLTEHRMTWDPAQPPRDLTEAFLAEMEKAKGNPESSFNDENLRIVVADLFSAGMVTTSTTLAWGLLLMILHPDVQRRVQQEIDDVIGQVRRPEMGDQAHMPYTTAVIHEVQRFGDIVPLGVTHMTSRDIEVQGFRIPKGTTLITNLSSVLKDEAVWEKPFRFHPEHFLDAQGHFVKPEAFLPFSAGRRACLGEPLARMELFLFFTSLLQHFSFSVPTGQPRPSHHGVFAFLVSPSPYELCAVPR
Description: as §2

CYP3A4 = target: T2, CYP3A4 (Homo sapiens, UniProt P08684); experiment: Biotransformation of Compound (A) in human liver microsomes with specific CYP inhibitors; assay type: in vitro ADME
T2 construct: from tissue; host or cells: human liver microsomes
T2 sequence (P08684 whole entry): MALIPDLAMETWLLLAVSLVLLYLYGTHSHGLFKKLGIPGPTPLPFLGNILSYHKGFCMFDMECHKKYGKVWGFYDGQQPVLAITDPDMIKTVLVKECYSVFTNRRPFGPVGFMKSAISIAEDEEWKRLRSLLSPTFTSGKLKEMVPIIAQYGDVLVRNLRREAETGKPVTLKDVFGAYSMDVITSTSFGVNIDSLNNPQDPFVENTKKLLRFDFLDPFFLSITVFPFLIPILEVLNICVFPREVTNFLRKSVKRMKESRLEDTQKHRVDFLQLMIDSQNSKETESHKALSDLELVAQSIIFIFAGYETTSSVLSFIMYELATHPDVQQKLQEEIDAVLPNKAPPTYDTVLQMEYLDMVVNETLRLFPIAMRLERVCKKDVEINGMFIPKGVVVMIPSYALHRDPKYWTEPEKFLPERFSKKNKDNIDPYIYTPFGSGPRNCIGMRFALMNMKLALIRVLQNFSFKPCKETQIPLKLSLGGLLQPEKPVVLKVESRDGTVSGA

[2] = test system: Caco-2 cell culture system; experiment: Caco-2 cell permeability
Description: The Pc of some model compounds, for which the bioavailability in humans is known, was also determined in the same experiment.

## C/C(=C\c1csc(C)n1)[C@@H]1C[C@@H]2O[C@]2(C)CCC[C@H](C)[C@H](O)[C@@H](C)C(=O)C(C)(C)[C@@H](O)CC(=O)N1 (relative stereo) [Compound (A), [1S-[1R*,3R*(E),7R*,10S*,11R*,12R*,16S*]]-7,11-dihydroxy 8,8,10,12,16-pentamethyl-3-[1-methyl-2-(2-methyl-4-thiazolyl)ethenyl-4-aza-17-oxobicyclo[14.1.0]heptadecane-5,9-dione]
[1]; 10 min IV infusion 0.5 mg/kg
  CLT (mean): 17.3 mL/min/kg
[1]; IV 0.5 mg/kg
  T-HALF: approximately 24 h
  mean VSS: 25.2 L/kg
[1]; IV 0.5 mg/kg, liver blood flow 30.9 mL/min/kg
  CLT as percent of liver blood flow: about 56%
[1]; preliminary IV pharmacokinetic study, 0.5 mg/kg
  AUC, mean (SD): 483 (34) h.ng/mL
Mouse liver microsomes
  rate of oxidative metabolism: 2.1 nmol/min/mg protein
Dog liver microsomes
  rate of oxidative metabolism: 1.2 nmol/min/mg protein
Human liver microsomes
  rate of oxidative metabolism: 1.3 nmol/min/mg protein
CYP1A2
  inhibition of CYP1A2: did not inhibit
CYP2C19
  inhibition of CYP2C19: did not inhibit
CYP2D6
  inhibition of CYP2D6: did not inhibit
CYP3A4
  cytochrome P450 responsible for metabolism: may be a substrate for CYP3A4
[2]; Caco-2, 10 pM (Ca 5 pg/mL)
  permeability coefficient (Pc): 9.4 ×10⁻⁶ cm/s
[2]; Caco-2, 30 pM (Ca 15 pg/mL)
  permeability coefficient (Pc): 10.5 ×10⁻⁶ cm/s
[2]; Caco-2, 100 pM (Ca 50 pg/mL)
  permeability coefficient (Pc): 12.8 ×10⁻⁶ cm/s
